Source: the NIST ThermoML archive (doi:10.1021/je8003468)
± gives the expanded uncertainty stated by the source.

Conditions: Ring tensiometer

CO [methanol]
Conditions | surface tension liquid-gas [mN/m]
279.11 K | 23.87 ± 0.14
282.59 K | 23.63 ± 0.14
288.3 K | 23.14 ± 0.12
293.37 K | 22.73 ± 0.12
296.97 K | 22.43 ± 0.13
301.54 K | 21.99 ± 0.11
307.31 K | 21.43 ± 0.11
311.76 K | 21 ± 0.15
317.66 K | 20.43 ± 0.14
322.9 K | 19.83 ± 0.17
326.56 K | 19.42 ± 0.15
330.01 K | 19.09 ± 0.11
333.81 K | 18.63 ± 0.14
